This passage reports inhibition results from US20230374034A1, “NOVEL BICYCLIC COMPOUNDS” (PRISM BIOLAB CO., LTD., priority 2020, published 2023).

The first assay deals with NICD (Notch intracellular domain) CSL-bla reporter in HeLa cells. The experiment in a line: Notch assay (CellSensor T-REx NICD CSL-bla HeLa beta-lactamase reporter; Method 1 / Method 2). Format: cell-based. The settings on record: Homo sapiens, 10 μM compound, Method 1 (10× compound prepared in assay medium, added to plated cells), read-out: inhibiton (%) at 10 μM. In a few lines: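 HeLa cells carrying doxycycline-inducible NICD and a CSL-driven beta-lactamase reporter, 10^3 cells/well, were treated with compound plus doxycycline for 16-20 h at 37 °C. CCF4-AM substrate was loaded for 4 h at room temperature; background-subtracted blue (460 nm)/green (530 nm) emission ratio taken per well.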
With `CC(C)C[C@H]1ON(C(=O)OCc2cccc3ccccc23)C2CN(CCC(N)=O)C(=O)[C@H](CC3CCCCC3)N2C1=O` (stereo partly drawn) [Compound I-13, (3R,6S)-naphthalen-1-ylmethyl 8-(3-amino-3-oxopropyl)-6-(cyclohexylmethyl)-3-isobutyl-4,7-dioxohexahydropyrazino[2,1-c][1,2,4]oxadiazine-1(6H)-carboxylate], the inhibition at 10 µM came out at 55.5%.
Same read-out and setting: the figure for `CCCC[C@H]1ON(C(=O)OCc2cccc3ccccc23)C2CN(CC3CCCCC3)C(=O)[C@H](Cc3ccc(O)cc3)N2C1=O` (stereo partly drawn) [Compound I-10, (3R,6S)-naphthalen-1-ylmethyl 3-butyl-8-(cyclohexylmethyl)-6-(4-hydroxybenzyl)-4,7-dioxohexahydropyrazino[2,1-c][1,2,4]oxadiazine-1(6H)-carboxylate] is 57.2%.
The same measure, in the same setting: the figure for `CCCC[C@H]1ON(C(=O)OCc2cccc3ccccc23)C2CN(C(C)C)C(=O)[C@H](Cc3ccc(O)cc3)N2C1=O` (stereo partly drawn) [Compound I-12, (3R,6S)-naphthalen-1-ylmethyl 3-butyl-6-(4-hydroxybenzyl)-8-isopropyl-4,7-dioxohexahydropyrazino[2,1-c][1,2,4]oxadiazine-1(6H)-carboxylate] is 71%.

Still in this assay, the particulars now being: Homo sapiens, 10 μM compound, Method 2 (40 nL of 1000× compound added to plate with Echo), read-out: inhibiton (%) at 10 μM.
Consider `CCCC[C@@H](C(=O)NCCC(C)C)N1CC2N(C(=O)OCCc3ccc(O)cc3)O[C@H](Cc3ccccc3)C(=O)N2[C@@H](Cc2ccc(O)cc2)C1=O` (stereo partly drawn) [Compound I-109, 4-hydroxyphenethyl (3R,6S)-3-benzyl-6-(4-hydroxybenzyl)-8-((S)-1-(isopentylamino)-1-oxohexan-2-yl)-4,7-dioxohexahydropyrazino[2,1-c][1,2,4]oxadiazine-1(6H)-carboxylate], for which the inhibition at 10 µM turned out to be 74%.
Still for that read-out and setting: the same measure for `Cc1ccc(S(=O)(=O)N2CCC(CCCN3O[C@H](CC(C)C)C(=O)N4C3CN(C3CCN(C)CC3)C(=O)[C@@H]4CC(C)C)CC2)cc1` (stereo partly drawn) [Compound I-149, (3R,6S)-3,6-diisobutyl-8-(1-methylpiperidin-4-yl)-1-(3-(1-tosylpiperidin-4-yl)propyl)tetrahydropyrazino [2,1-c][1,2,4]oxadiazine-4,7(3H,6H)-dione]: 114%.
For the compound `CCCC[C@@H](C(=O)NCCCC(C)C)N1CC2N(C(=O)OCCc3ccc(O)cc3)O[C@H](Cc3ccccc3)C(=O)N2[C@@H](Cc2ccc(O)cc2)C1=O` (stereo partly drawn) [Compound I-112, 4-hydroxyphenethyl (3R,6S)-3-benzyl-6-(4-hydroxybenzyl)-8-((S)-1-((4-methylpentyl)amino)-1-oxohexan-2-yl)-4,7-dioxohexahydropyrazino[2,1-c][1,2,4]oxadiazine-1(6H)-carboxylate], the inhibition at 10 µM was 54.2%.
The same measure, in the same setting: the same measure for `O=C1[C@H](CO)N2C(=O)[C@@H](Cc3ccc(O)cc3)ON(C(=O)OCC3CCCCC3)C2CN1CCc1cccc2ccccc12` (stereo partly drawn) [Compound I-47, (3R,6S)-cyclohexylmethyl 3-(4-hydroxybenzyl)-6-(hydroxymethyl)-8-(2-(naphthalen-1-yl)ethyl)-4,7-dioxohexahydropyrazino[2,1-c][1,2,4]oxadiazine-1(6H)-carboxylate]: 71.4%; for `CC(C)CCNC(=O)[C@H](Cc1ccc(O)cc1)N1CC2N(C(=O)OCCC(C)C)O[C@H](CC(C)C)C(=O)N2[C@@H](Cc2ccc(O)cc2)C1=O` (stereo partly drawn) [Compound I-94, isopentyl (3R,6S)-6-(4-hydroxybenzyl)-8-((S)-3-(4-hydroxyphenyl)-1-(isopentylamino)-1-oxopropan-2-yl)-3-isobutyl-4,7-dioxohexahydropyrazino[2,1-c][1,2,4]oxadiazine-1(6H)-carboxylate]: 57.8%.
